In test [1] the test system is Nisin Z-producing strain (parent strain). The experiment in a line: Growth of parent strain on Nisin-containing M17 medium (MIC). It is filed as cell-based, Lactococcus lactis. The conditions noted are these: 30° C., 2 days. On the procedure:
A Nisin Z-producing strain (parent strain shown in Table 3) separated from its native environment was plated on M17 medium (manufactured by Difco) prepared such that a Nisin concentration became 1,000, 2,000, 5,000 or 10,000 IU/mL, and was cultured at 30° C. for 2 days. This strain grew in M17 medium having a Nisin concentration of 1,000 or 2,000 IU/mL, but not in M17 medium having a Nisin concentration of 5,000 or 10,000 IU/mL. From the results, it was confirmed that the minimum growth inhibitory concentration (MIC) of this strain to Nisin was 5,000 IU/mL.

Test [2] relates to Nisin Z-producing lactic acid bacteria (mutated strain). The experiment in a line: Growth of NTG-mutated Nisin Z-producing lactic acid bacteria in Nisin-containing M17 medium. It is filed as cell-based, Lactococcus lactis. On the procedure:
The Nisin Z-producing lactic acid bacteria separated from its native environment were precultured in M17 medium, and the lactic acid bacteria were treated with 500 μg/mL of NTG to induce mutation.

Nisin: in test [1], the “minimum growth inhibitory concentration (MIC) of this strain to Nisin” value is 5,000 IU/mL. In addition, the Growth number in test [2] (Nisin conc. 1,000 IU/ml) worked out at 1.20E+09 cell/ml; in test [2] (Nisin conc. 2,000 IU/ml), 1.20E+09 cell/ml; in test [2] (Nisin conc. 4,000 IU/ml), 1.20E+09 cell/ml; in test [2] (Nisin conc. 8,000 IU/ml), 7.00E+08 cell/ml; in test [2] (Nisin conc. 10,000 IU/ml), 1.14E+08 cell/ml; in test [2] (Nisin conc. 20,000 IU/ml), 3.21E+07 cell/ml. Further, the Growth number in test [2] (Nisin conc. 40,000 IU/ml) stood at 9.35E+05 cell/ml; in test [2] (Nisin conc. 80,000 IU/ml), 1.16E+03 cell/ml; in test [2] (Nisin conc. 100,000 IU/ml), 4.76E+02 cell/ml.

(Values after patent publication US20090136624A1, “LACTIC ACID BACTERIA PRODUCING NISIN AT HIGH CONCENTRATION AND METHOD FOR SELECTING THE SAME” (Ajinomoto Co., Inc., priority 2004, published 2009).)
